Reference: article PMC6753678, “Fueling Open Innovation for Malaria Transmission-Blocking Drugs: Hundreds of Molecules Targeting Early Parasite Mosquito Stages” (Frontiers in Microbiology, 2019)
Read-outs that look alike come from different tables or passages of the source.

Legend:
HepG2 cells = settings: cited from earlier work
[1] = tested on: P. falciparum female gametocytes; parameters: method as in Miguel-Blanco et al 2017; settings: TCAMS library screen; ref Miguel-Blanco et al 2017; read-out: Pf FGAA IC50; cited from earlier work
[2] = tested on: P. falciparum female gametocytes; test: P. falciparum female gametogenesis assay (Pf FGAA); settings: 1: YES; 0: NO
[3] = HepG2 value reported with Pf FGAA screen, ref Miguel-Blanco et al 2017

SMILES	HepG2 cytoxicity (Pf FGAA screen) (HepG2 cells; [3]) [µM]	IC50 [1] [nM]	Is compound selective in assay? Pf FGAA active? [2]	HepG2 cytoxicity (Pf FGAA screen) (HepG2 cells) [µM]
Clc1ccc(-c2csc3ncnc(Cl)c23)cc1 [TCMDC-123811]	94.46	1570	1 (1: YES)	–
O=C(Nc1nc(-c2ccccn2)cs1)c1ccc(Br)s1 [TCMDC-123868]	37.44	1160	1 (1: YES)	–
CCCC(=O)NC(c1ccc(C(C)C)cc1)c1ccc2cccnc2c1O (stereo not drawn) [TCMDC-123884]	>100	1540	1 (1: YES)	–
CCOc1ccc(-n2nc3c(Cl)nnc(-c4ccccc4)c3c2-c2ccccc2)cc1 [TCMDC-123899]	>100	940	1 (1: YES)	–
OCCN1CCN(c2ccc(Nc3ccnc4cc5ccccc5cc34)cc2)CC1 [TCMDC-123915]	5.43	3340	0 (0: NO)	–
CCc1cc2c(Sc3nnc(N)s3)ncnc2s1 [TCMDC-123993]	32.30	730	1 (1: YES)	–
Cc1cc(I)ccc1Nc1nc2nonc2nc1Nc1ccc(I)cc1C [TCMDC-124083]	0.93	1080	0 (0: NO)	–
FC(F)(F)c1cccc(Nc2nc3ccccc3nc2Nc2cccc(C(F)(F)F)c2)c1 [TCMDC-124162]	17.68	2400	0 (0: NO)	–
CC(C)C1=CC(=NOS(=O)(=O)c2ccccc2)C=C(C(C)C)C1=O [TCMDC-124172]	21.70	880	1 (1: YES)	–
CCN1CCN(c2ccc(Nc3c4ccccc4nc4ccccc34)cc2)CC1 [TCMDC-124255]	4.57	1000	0 (0: NO)	–
Cc1ccc(Cl)c2sc(N3CCN(C(=O)c4ccc([N+](=O)[O-])o4)CC3)nc12 [TCMDC-124311]	25.79	1440	1 (1: YES)	–
Cc1ccc(C)c2sc(N3CCN(C(=O)c4ccc([N+](=O)[O-])o4)CC3)nc12 [TCMDC-124315]	37.65	1120	1 (1: YES)	–
O=C(c1ccc([N+](=O)[O-])o1)N1CCN(c2nc3c(Cl)cccc3s2)CC1 [TCMDC-124316]	41.96	1100	1 (1: YES)	–
CC(C)(C)Nc1cc(C2CC2)nc(-c2ccccn2)n1 [TCMDC-124453]	>100	100	1 (1: YES)	–
O=C(Nc1ccc([N+](=O)[O-])cc1)Nc1cc(OCC(F)(F)F)cc(OCC(F)(F)F)c1 [TCMDC-124533]	6.24	1160	0 (0: NO)	–
CC1Cc2ccccc2N1S(=O)(=O)c1cccc(C(=O)Nc2nc(-c3ccccn3)cs2)c1 (stereo not drawn) [TCMDC-124559]	50.12	340	1 (1: YES)	–
c1ccn2c(Sc3ncnc4sccc34)ncc2c1 [TCMDC-124602]	>100	240	1 (1: YES)	–
Cl.Clc1cc(Br)ccc1-c1ccc(CNCC2CCNCC2)o1 [TCMDC-124617]	4.37	720	0 (0: NO)	–
CN1CCC(N2CCC(Oc3cccc(C(=O)NCCCC4CCCC4)c3)CC2)CC1 [TCMDC-124677]	4.90	1470	0 (0: NO)	–
Cc1ccc2c(c1)c(C1CCN(C(=O)c3ccc([N+](=O)[O-])o3)CC1)cn2C [TCMDC-124787]	28.85	2120	1 (1: YES)	–
Cc1sc2nc(CN3CCCC3)nc(-n3c(NCCO)nc4ccccc43)c2c1C [TCMDC-124811]	25.73	7050	0 (0: NO)	–
C=CCc1cccc(CN2CCC(c3cc(=O)[nH]c(-c4ccccn4)n3)CC2)c1O [TCMDC-124851]	11.49	1740	0 (0: NO)	–
CCCc1cc(=O)[nH]c(-n2nc(C)cc2NC(=O)CC(c2ccccc2)c2ccccc2)n1 [TCMDC-124940]	>100	1300	1 (1: YES)	–
COc1ccc(NC(=O)Nc2ccc(Nc3nc(C)cc(N4CCCC4)n3)cc2)cc1 [TCMDC-124958]	11.89	1080	1 (1: YES)	–

SMILES	HepG2 cytoxicity (Pf FGAA screen) (HepG2 cells; [3]) [µM]	IC50 [1] [nM]	Is compound selective in assay? Pf FGAA active? [2]	HepG2 cytoxicity (Pf FGAA screen) (HepG2 cells) [µM]
O=C(c1ccc([N+](=O)[O-])o1)N1CCN(c2nc3c(F)cc(F)cc3s2)CC1 [TCMDC-125149]	>100	1310	1 (1: YES)	–
CNCCCNCc1ccc(-c2ccc(F)c(Cl)c2)o1.Cl [TCMDC-125237]	10.60	1870	0 (0: NO)	–
COc1cc(OC)cc(C(=O)Nc2nc(-c3ccccn3)cs2)c1 [TCMDC-125345]	39.82	360	1 (1: YES)	–
CC(Nc1cc(-c2ccccn2)nc(-c2ccccn2)n1)c1ccccc1 (stereo not drawn) [TCMDC-125420]	6.18	210	1 (1: YES)	–
c1ccc(CNc2cc(-c3ccccn3)nc(-c3ccccn3)n2)cc1 [TCMDC-125421]	13.04	320	1 (1: YES)	–
Fc1ccc2nc(Nc3nc(-c4ccccn4)cs3)sc2c1 [TCMDC-125540]	58.31	54.3	1 (1: YES)	–
Oc1c(C(Nc2ccccn2)c2ccc(Cl)cc2Cl)ccc2cccnc12 (stereo not drawn) [TCMDC-125559]	12.74	1140	1 (1: YES)	–
O=C(Nc1cc(C(F)(F)F)cc(C(F)(F)F)c1)Nc1ccc(Cl)c(Cl)c1 [TCMDC-125592]	3.07	1430	0 (0: NO)	–
ON=C(c1nc2ccccc2[nH]1)c1nc2ccccc2[nH]1 [TCMDC-125758]	4.96	330	1 (1: YES)	–
c1ccc(-c2nc(NC3CCCCC3)cc(C3CC3)n2)nc1 [TCMDC-125825]	48.99	160	1 (1: YES)	–
CC(C)(C)c1cc(NC2CC2)nc(-c2ccccn2)n1 [TCMDC-125826]	>100	120	1 (1: YES)	–
CCN(CCNS(C)(=O)=O)c1ccc(N)c(C)c1.O.O=S(=O)(O)O [TCMDC-125836]	26.14	1140	1 (1: YES)	–
Br.Oc1ccc(CCNCCCCCCNCCc2ccc(-c3ccccc3)cc2)cc1O [TCMDC-131268]	13.18	10900	0 (0: NO)	–
Br.CC(C)(Cc1ccc(Cl)cc1)NCCCCCCNCCc1ccc(O)c(O)c1 [TCMDC-131277]	10.97	9660	0 (0: NO)	–
C[C@H](Cc1ccc(OCCCCCCOc2ccc(C[C@@H](C)N[C@H](C)c3ccccc3)cc2)cc1)NC[C@H](O)c1cccc(Cl)c1.Cl [TCMDC-131564]	4.28	720	0 (0: NO)	–
Br.CCc1c(CCNCCCCCCNCCc2ccc(Br)cc2)ccc(O)c1O [TCMDC-132044]	7.96	1300	0 (0: NO)	–
Cc1c2ccncc2c(C)c2c1[nH]c1cc(Cc3ccccc3)c(O)cc12 [TCMDC-132053]	1.23	1090	0 (0: NO)	–
CCc1c(CCNC/C=C/C=C/CNCCc2ccc(OC)c(OC)c2CC)ccc(OC)c1OC.Cl [TCMDC-132061]	4.68	2560	0 (0: NO)	–
CCc1c(CCNCCCCCNCCc2ccc(OC)c(OC)c2CC)ccc(OC)c1OC.Cl [TCMDC-132064]	4.68	2050	0 (0: NO)	–
CCc1c(CCNCCCCCCNCCc2ccc3c(c2C)OCO3)ccc2c1OCO2.Cl [TCMDC-132093]	3.89	1020	0 (0: NO)	–
Cl.N#Cc1c(F)cc(N2CCC(NCC[C@H](N)Cc3ccc(F)c(F)c3)CC2)cc1F [TCMDC-132121]	–	730	0 (0: NO)	4.58
CN(C)Cc1cccc2nc(-c3csc(Cc4cc(Cl)ccc4OCc4ccccc4)n3)[nH]c12 [TCMDC-132174]	13.04	2100	0 (0: NO)	–
O=C(O)C(F)(F)F.O=S(=O)(NCCN1CCCC1)c1ccc(-c2cccc(CNC3Cc4ccccc4C3)c2)cc1 [TCMDC-132215]	6.03	2540	0 (0: NO)	–
